Test results from patent US8207172B2 (Bayer Intellectual Property GmbH, priority 2004, dated 2012).
Structures can show the parent of a compound that is named as a salt.

What was measured:
[1] = system: BT474 (human breast carcinoma); test: In vitro tumor cell proliferation assay (Cell Titer-Glo luminescent cell viability), BT474; assay type: cell-based; details: BT-474, 72 h, BT474 cells, 72 hours of drug exposure, ATP luminescence readout, read-out: IC50, anti-proliferative activity (inhibition of cell proliferation)
Outline: (§1)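 CellTiter-Glo luminescence (ATP content of metabolically active cells) after 72 h compound exposure at 37° C gave IC50s.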

[2] = system: A431 cells (human epidermoid carcinoma); test: In vitro tumor cell proliferation assay (Cell Titer-Glo luminescent cell viability), A431; assay type: cell-based; details: A-431, 72 h, 72 hours of drug exposure, ATP luminescence readout, read-out: IC50, anti-proliferative activity (inhibition of cell proliferation)
Outline: as §1

CN(C)[C@H]1CCN(CC(=O)N2CCC(n3cc4c(n3)CCc3c-4sc4ncnc(Nc5ccc(OCc6cccc(F)c6)c(Cl)c5)c34)CC2)C1 [Example 223, N-{3-chloro-4-[(3-fluorobenzyl)oxy)phenyl}-2-(1-{[(3S)-3-(dimethylamino)pyrrolidin-1-yl]acetyl}piperidin-4-yl)-4,5-dihydro-2H-pyrimido[5′,4′:4,5]thieno[2,3-e]indazol-6-amine]
IC50 [1]: ≤ 1 µM | IC50 [2]: ≤ 5 µM

CCN1CCN(C(=O)Cn2cc3c(n2)CCc2c-3sc3ncnc(Nc4ccc(OCc5cccc(F)c5)c(Cl)c4)c23)CC1 [Example 185, N-{3-chloro-4-[(3-fluorobenzyl)oxy]phenyl}-2-[2-(4-ethylpiperazin-1-yl)-2-oxoethyl]-4,5-dihydro-2H-pyrimido[5′,4′:4,5]thieno[2,3-e]indazol-6-amine]
IC50 [1]: ≤ 1 µM | IC50 [2]: ≤ 5 µM

O[C@H](CN1CCCC1)Cn1cc2c(n1)CCc1c-2sc2ncnc(Nc3ccc(OCc4cccc(F)c4)c(Cl)c3)c12 [Example 149, (2R)-1-[6-({3-chloro-4-[(3-fluorobenzyl)oxy]phenyl}amino)-4,5-dihydro-2H-pyrimido[5′,4′:4,5]thieno[2,3-e]indazol-2-yl]-3-pyrrolidin-1-ylpropan-2-ol trifluoroacetate (salt)]
IC50 [1]: ≤ 1 µM | IC50 [2]: ≤ 50 µM

CC(C)NC[C@@H](O)Cn1cc2c(n1)CCc1c-2sc2ncnc(Nc3ccc(OCc4cccc(F)c4)c(Cl)c3)c12 [Example 159, (2R)-1-[6-({3-chloro-4-[(3-fluorobenzyl)oxy]phenyl}amino)-4,5-dihydro-2H-pyrimido[5′,4′:4,5]thieno[2,3-e]indazol-2-yl]-3-(isopropylamino)propan-2-ol trifluoroacetate (salt)]
IC50 [1]: ≤ 5 µM | IC50 [2]: ≤ 50 µM

Fc1ccc(Nc2ncnc3sc4c(c23)CCc2nn(CCn3ccnc3)cc2-4)cc1Cl [Example 12, N-(3-chloro-4-fluorophenyl)-2-[2-(1H-imidazol-1-yl)ethyl]-4,5-dihydro-2H-pyrimido[5′,4′:4,5]thieno[2,3-e]indazol-6-amine]
IC50 [1]: ≤ 5 µM | IC50 [2]: ≤ 5 µM

CCOC(=O)Cn1ncc2c1CCc1c-2sc2ncnc(Nc3ccc(OCc4cccc(F)c4)c(Cl)c3)c12 [Example 190, ethyl [6-({3-chloro-4-[(3-fluorobenzyl)oxy]phenyl}amino)-4,5-dihydro-3H-pyrimido[5′,4′:4,5]thieno[2,3-e]indazol-3-yl]acetate]
IC50 [1]: ≤ 1 µM | IC50 [2]: ≤ 50 µM

COC[C@@H]1CCCN1CCn1cc2c(n1)CCc1c-2sc2ncnc(Nc3ccc(F)c(Cl)c3)c12 [Example 31, N-(3-chloro-4-fluorophenyl)-2-{2-[(2S)-2-(methoxymethyl)pyrrolidin-1-yl]ethyl}-4,5-dihydro-2H-pyrimido[5′,4′:4,5]thieno[2,3-e]indazol-6-amine]
IC50 [1]: ≤ 5 µM | IC50 [2]: ≤ 5 µM

CN1CCN(CCn2cc3c(n2)CCc2c-3sc3ncnc(Nc4ccc(OCc5cccc(Cl)c5)c(Cl)c4)c23)CC1 [Example 333, N-{3-chloro-4-[(3-chlorobenzyl)oxy]phenyl}-2-[2-(4-methylpiperazin-1-yl)ethyl]-4,5-dihydro-2H-pyrimido[5′,4′:4,5]thieno[2,3-e]indazol-6-amine]
IC50 [1]: ≤ 1 µM | IC50 [2]: ≤ 5 µM

Cc1cc(Nc2ncnc3sc4c(c23)CCc2nn(CCN3CCN(C)CC3)cc2-4)ccc1OCc1cccc(F)c1 [Example 335, N-{4-[(3-fluorobenzyl)oxy]-3-methylphenyl}-2-[2-(4-methylpiperazin-1-yl)ethyl]-4,5-dihydro-2H-pyrimido[5′,4′:4,5]thieno[2,3-e]indazol-6-amine]
IC50 [1]: ≤ 1 µM | IC50 [2]: ≤ 5 µM

Fc1cccc(COc2ccc(Nc3ncnc4sc5c(c34)CCc3c-5cnn3CCN3CCCCC3)cc2Cl)c1 [Example 266, trifluoroacetate]
IC50 [1]: ≤ 1 µM | IC50 [2]: ≤ 5 µM

O=C(Cn1ncc2c1CCc1c-2sc2ncnc(Nc3ccc(OCc4cccc(F)c4)c(Cl)c3)c12)N1CCOCC1 [Example 199, N-{3-chloro-4-[(3-fluorobenzyl)oxy]phenyl}-3-(2-morpholin-4-yl-2-oxoethyl)-4,5-dihydro-3H-pyrimido[5′,4′:4,5]thieno[2,3-e]indazol-6-amine]
IC50 [1]: ≤ 1 µM | IC50 [2]: ≤ 50 µM

OCCNC[C@@H](O)Cn1cc2c(n1)CCc1c-2sc2ncnc(Nc3ccc(OCc4cccc(F)c4)c(Cl)c3)c12 [Example 151, (2R)-1-[6-({3-chloro-4-[(3-fluorobenzyl)oxy]phenyl}amino)-4,5-dihydro-2H-pyrimido[5′,4′:4,5]thieno[2,3-e]indazol-2-yl]-3-[(2-hydroxyethyl)amino]propan-2-ol trifluoroacetate (salt)]
IC50 [1]: ≤ 1 µM | IC50 [2]: ≤ 50 µM

O=C(Cn1ncc2c1CCc1c-2sc2ncnc(Nc3ccc(OCc4cccc(F)c4)c(Cl)c3)c12)N1CC[C@H](O)C1 [Example 214, 1-{[6-({3-chloro-4-{(3-fluorobenzyl)oxy]phenyl}amino)-4,5-dihydro-3H-pyrimido[5′,4′:4,5]thieno[2,3-e]indazol-3-yl]acetyl}pyrrolidin-3-ol]
IC50 [1]: ≤ 1 µM | IC50 [2]: ≤ 5 µM

CCN1CCN(CCn2cc3c(n2)CCc2c-3sc3ncnc(Nc4ccc5c(cnn5Cc5cccc(F)c5)c4)c23)CC1 [Example 283, 2-[2-(4-ethylpiperazin-1-yl)ethyl]-N-[1-(3-fluorobenzyl)-1H-indazol-5-yl]-4,5-dihydro-2H-pyrimido[5′,4′:4,5]thieno[2,3-e]indazol-6-amine]
IC50 [1]: ≤ 1 µM | IC50 [2]: ≤ 5 µM

OC1CCN(CCn2cc3c(n2)CCc2c-3sc3ncnc(Nc4ccc5c(cnn5Cc5cccc(F)c5)c4)c23)C1 (centres unmarked) [Example 286, 1-[2-(6-{[1-(3-fluorobenzyl)-1H-indazol-5-yl]amino}-4,5-dihydro-2H-pyrimido[5′,4′:4,5]thieno[2,3-e]indazol-2-yl)ethyl]pyrrolidin-3-ol]
IC50 [1]: ≤ 1 µM | IC50 [2]: ≤ 5 µM

O[C@H](CN1CCNCC1)Cn1cc2c(n1)CCc1c-2sc2ncnc(Nc3ccc(OCc4cccc(F)c4)c(Cl)c3)c12 [Example 152, (2R)-1-[6-({3-chloro-4-[(3-fluorobenzyl)oxy]phenyl}amino)-4,5-dihydro-2H-pyrimido[5′,4′:4,5]thieno[2,3-e]indazol-2-yl]-3-piperazin-1-ylpropan-2-ol trifluoroacetate (salt)]
IC50 [1]: ≤ 1 µM | IC50 [2]: ≤ 50 µM

OCCNCCn1ncc2c1CCc1c-2sc2ncnc(Nc3ccc4c(cnn4Cc4cccc(F)c4)c3)c12 [Example 300, 2-{[2-(6-{[1-(3-fluorobenzyl)-1H-indazol-5-yl]amino}-4,5-dihydro-3H-pyrimido[5′,4′:4,5]thieno[2,3-e]indazol-3-yl)ethyl]amino}ethanol]
IC50 [1]: ≤ 1 µM | IC50 [2]: ≤ 5 µM

COCCN(CCn1cc2c(n1)CCc1c-2sc2ncnc(Nc3ccc(F)c(Cl)c3)c12)C(C)C [Example 21, N-(3-chloro-4-fluorophenyl)-2-{2-[isopropyl(2-methoxyethyl)amino]ethyl}-4,5-dihydro-2H-pyrimido[5′,4′:4,5]thieno[2,3-e]indazol-6-amine]
IC50 [1]: ≤ 5 µM | IC50 [2]: ≤ 5 µM

COCCN1CCN(CCn2ncc3c2CCc2c-3sc3ncnc(Nc4ccc(OCc5cccc(F)c5)c(Cl)c4)c23)CC1 [Example 265, N-{3-chloro-4-[(3-fluorobenzyl)oxy]phenyl}-3-{2-[4-(2-methoxyethyl)piperazin-1-yl]ethyl}-4,5-dihydro-3H-pyrimido[5′,4′:4,5]thieno[2,3-e]indazol-6-amine trifluoroacetate]
IC50 [1]: ≤ 1 µM | IC50 [2]: ≤ 50 µM

CN1CCN(CCn2cc3c(n2)CCc2c-3sc3ncnc(Nc4ccc5c(cnn5Cc5ccccn5)c4)c23)CC1 [Example 338, 2-[2-(4-methylpiperazin-1-yl)ethyl]-N-[1-(pyridin-2-ylmethyl)-1H-indazol-5-yl]-4,5-dihydro-2H-pyrimido[5′,4′:4,5]thieno[2,3-e]indazol-6-amine]
IC50 [1]: ≤ 1 µM | IC50 [2]: ≤ 50 µM

COCCN(CCOC)C[C@@H](O)Cn1ncc2c1CCc1c-2sc2ncnc(Nc3ccc(OCc4cccc(F)c4)c(Cl)c3)c12 [Example 164, (2R)-1-[bis(2-methoxyethyl)amino]-3-[6-({3-chloro-4-[(3-fluorobenzyl)oxy]phenyl}amino)-4,5-dihydro-3H-pyrimido[5′,4′:4,5]thieno[2,3-e]indazol-3-yl]propan-2-ol trifluoroacetate (salt)]
IC50 [1]: ≤ 5 µM | IC50 [2]: ≤ 50 µM

CN1CCN(C[C@@H](O)Cn2cc3c(n2)CCc2c-3sc3ncnc(Nc4ccc(OCc5cccc(F)c5)c(Cl)c4)c23)CC1 [Example 136, (2R)-1-[6-({3-chloro-4-[(3-fluorobenzyl)oxy]phenyl}amino)-4,5-dihydro-2H-pyrimido[5′,4′:4,5]thieno[2,3-e]indazol-2-yl]-3-(4-methylpiperazin-1-yl)propan-2-ol]
IC50 [1]: ≤ 1 µM | IC50 [2]: ≤ 50 µM

COCCNCCn1ncc2c1CCc1c-2sc2ncnc(Nc3ccc(OCc4cccc(F)c4)c(Cl)c3)c12 [Example 84, N-{3-chloro-4-[(3-fluorobenzyl)oxy]phenyl}-3-{2-[(2-methoxyethyl)amino]ethyl}-4,5-dihydro-3H-pyrimido[5′,4′:4,5]thieno[2,3-e]indazol-6-amine]
IC50 [1]: ≤ 1 µM | IC50 [2]: ≤ 5 µM

Fc1cccc(COc2ccc(Nc3ncnc4sc5c(c34)CCc3c-5cnn3CCN3CCCC3)cc2Cl)c1 [Example 87, N-{3-chloro-4-[(3-fluorobenzyl)oxy]phenyl}-3-(2-pyrrolidin-1-ylethyl)-4,5-dihydro-3H-pyrimido[5′,4′:4,5]thieno[2,3-e]indazol-6-amine]
IC50 [1]: ≤ 1 µM | IC50 [2]: ≤ 5 µM

COc1cccc(COc2ccc(Nc3ncnc4sc5c(c34)CCc3c-5cnn3CCN3CCN(C)CC3)cc2Cl)c1 [Example 318, N-{3-chloro-4-[(3-methoxybenzyl)oxy]phenyl}-3-[2-(4-methylpiperazin-1-yl)ethyl]-4,5-dihydro-3H-pyrimido[5′,4′:4,5]thieno[2,3-e]indazol-6-amine]
IC50 [1]: ≤ 5 µM | IC50 [2]: ≤ 5 µM
